Patent publication US20030096831A1, “Ocular growth and nicotinic antagonists” (priority 2000, published 2003)
“And” between values parts separate entries of the source, which are not always exact repeats. Equal entries are not always repeated. “Also recorded” adds a separate entry of the source. Structures can show the parent of a compound that is named as a salt.

Legend:
[1] = system: goggled eyes (form-deprivation myopia); experiment: Form-deprivation myopia in unilaterally goggled chicks, intravitreal drug for one week; conditions: for axial length measured by digital calipers, goggled eyes, drug effect / axial length measured by ultrasound, goggled eyes, drug effect / equatorial diameter measured by calipers (equatorial expansion of vitreous cavity), goggled eyes, drug effect / vitreous cavity length measured by ultrasound, goggled eyes, drug effect / refraction of goggled eyes (myopic refractive error), drug effect: difference goggled vs contralateral open eye, ANOVA over all doses
[2] = system: chick eye (intraocular muscles, refraction, ocular dimensions); experiment: Acute drug effects after a single intravitreal injection (pupil, refractometry, ultrasonography); type: in vivo, chicks
Protocol: Acute drug effects. To assess acute drug effects, other two-week old chicks (n=5/group) received a single unilateral intravitreal injection of one of the nicotinic antagonists at doses chosen based on drug effects on the growth of goggled eyes: 200 μg chlorisondamine, 50 μg and 1 μg mecamylamine, 5 μg methyllycaconitine or […] dihydro-β-erythroidine. Just before and at two hours and 24 hours after injection, both eyes were examined by refractometry and ultrasonography by the above methods.

[3] = system: retina, retinal pigment epithelium, choroid; experiment: Histopathological effects on goggled and never-goggled eyes; type: in vivo, chicks; conditions: 200 or 50 μg daily, one week; goggled and non-goggled eyes
Protocol: Histopathological effects. To identify potential histopathologic effects in other groups of monocularly deprived or never-goggled one-week old chicks, chlorisondamine (200 or 100 μg every other day; n=5-6/group), mecamylamine (200 or 50 μg daily; n=5-8/group) or saline vehicle (n=3-9/group) was administered by intravitreal injection to the goggled eyes or to one of the open eyes of never-goggled chicks with vehicle to the contralateral eye, using the identical protocol as above. After one week of treatment, the above protocols provided refraction, ultrasound and caliper measurements. The eyes were then immersion fixed in 3% glutaraldehyde/0.5% paraformaldehyde in 0.1M phosphate buffer, pH 7.4. The posterior segments were either embedded in paraffin, cut at 5 μm thickness and stained with hematoxylin and eosin, or embedded in historesin, cut at 3 μm or 5 μm thickness and stained with 0.5% azure II/0.5% methylene blue in 1% borate.

[4] = system: non-goggled eyes; experiment: Eye growth and refraction of non-goggled (open) eyes, intravitreal drug for one week; conditions: daily intravitreal injections, one week, doses of 50, 10 or 1 μg
[5] = intravitreal, one week, hydrobromide
[6] = intravitreal, one week, listed as Dihydro-β-erythroidine, hydrobromide
[7] = goggled chicks, P<0.05, dose groups that differ
[8] = two hours after single intravitreal injection of 50 μg

## Br.COC1CC=C2CCN3CCC4=C(CC(=O)OC4)C23C1 (stereo not drawn) [dihydro-β-erythroidine, dihydro-β-crythroidine hydrobromide]
[1]; intravitreal, one week
  axial length measured by digital calipers, goggled eyes, drug effect: significant reduction
  axial length measured by ultrasound, goggled eyes, drug effect: none of the differences in refraction, ultrasound measurements or caliper measurements of the equatorial diameter reached statistical significance
  equatorial diameter measured by calipers (equatorial expansion of vitreous cavity), goggled eyes, drug effect: none of the differences in refraction, ultrasound measurements or caliper measurements of the equatorial diameter reached statistical significance
  vitreous cavity length measured by ultrasound, goggled eyes, drug effect: none of the differences in refraction, ultrasound measurements or caliper measurements of the equatorial diameter reached statistical significance
[1]; [5]
  refraction of goggled eyes (myopic refractive error), drug effect: had no effect on the refraction of visually deprived eyes
  overall effect on excessive ocular growth / experimental myopia of goggled eyes: weaker as only the axial measurements by calipers showed a statistically significant drug effect
[1]; [6]
  refraction of goggled eyes (myopic refractive error), drug effect: none of the differences in refraction, ultrasound measurements or caliper measurements of the equatorial diameter reached statistical significance
  overall effect on excessive ocular growth / experimental myopia of goggled eyes: only a weak effect against experimental myopia
[1]; [7]
  Caliper measurements axial length: statistically significant post hoc pairwise comparisons (Tukey test): no individual drug dose was identified
[2]; [8]
  pupil diameter, change from baseline: 1.0±0.1 mm

## CNC1(C)C2CCC(C2)C1(C)C (centres unmarked) [mecamylamine]
[3]
  retinas, gross and histological appearance: indistinguishable grossly or histologically from vehicle treated control eyes
[1]; 50 μg daily intravitreal, one week
  induced myopia (refraction) of goggled eyes at the 50 μg dose: virtually eliminated the induced myopia
[1]; intravitreal, one week
  axial length measured by digital calipers, goggled eyes, drug effect: no statistical effect
  axial length measured by ultrasound, goggled eyes, drug effect: only a trend towards a drug effect
  equatorial diameter measured by calipers (equatorial expansion of vitreous cavity), goggled eyes, drug effect: influenced
  refraction of goggled eyes (myopic refractive error), drug effect: altered refraction of goggled eyes; also recorded: influenced the myopic refraction occurring beneath a goggle
  vitreous cavity length measured by ultrasound, goggled eyes, drug effect: influenced the ultrasound measurements of vitreous cavity length
  overall effect on excessive ocular growth / experimental myopia of goggled eyes: multiphasic response that differed between the low and high drug doses; also recorded: reduced the excessive ocular growth occurring beneath a goggle
[1]; [7]
  Caliper measurements equatorial diameter: statistically significant post hoc pairwise comparisons (Tukey test): did not identify any individual doses that differed from the controls
  Ultrasound measurements vitreous cavity depth: statistically significant post hoc pairwise comparisons (Tukey test): 50 μg vs. 1 μg
  refraction: statistically significant post hoc pairwise comparisons (Tukey test): only the 50 μg dose differed significantly from the controls and 200 μg vs. 1 μg and 100 μg vs. 1 μg
[1]; goggled chicks, P<0.05, dose groups that differ, listed as Mecamylamine
  Ultrasound measurements vitreous cavity depth: statistically significant post hoc pairwise comparisons (Tukey test): the 1 μg dose as different from the 50 μg dose but not from the controls
[1]; lowest doses (1 and 10 μg) daily intravitreal
  growth and myopic refractive shift of goggled eyes at the lowest doses: tended toward stimulating the growth and myopic refractive shift of goggled eyes
[4]
  growth or refraction of non-goggled eyes: no influence
[2]; 24 hours after single intravitreal injection of 50 μg
  pupil diameter, change from baseline: 0.4±0.1 mm
[2]; two hours after single intravitreal injection of 1 μg
  pupil diameter, change from baseline: 0.8±0.2 mm
[2]; [8]
  pupil diameter, change from baseline: 0.3±0.1 mm

## CCN1C[C@]2(COC(=O)c3ccccc3N3C(=O)C[C@H](C)C3=O)CC[C@H](OC)[C@@]34[C@@H]5C[C@H]6[C@H](OC)[C@@H]5[C@](O)(C[C@@H]6OC)[C@](O)([C@@H](OC)[C@H]23)[C@@H]14 [methyllycaconitine, methyllcaconitine citrate]
[1]; intravitreal, one week, ANOVA
  anterior chamber depth of goggled eyes, drug effect: no effect
[2]; two hours after single intravitreal injection of 5 μg
  pupil diameter, change from baseline: 0.4±0.2 mm
